According to patent US7135466B2 (Kirin Beer Kabushiki Kaisha, priority 1999, dated 2006):
pIC50: −log10 of the molar value.

What follows are compounds tested against T1, c-kit (Homo sapiens, UniProt P10721) (assay: Inhibitory activity against c-kit autophosphorylation (MO7e cells, h-SCF)). Conditions: MO7e cells, h-SCF 50 ng/ml; read-out: c-kit IC50.
T1 construct: MO7e (human megakaryocytic leukemia cell line) which had been arrested for 20 hr; endogenous in cells; host or cells: MO7e human megakaryocytic leukemia cell line
Format: cell-based
Procedure, shortened: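 Growth-arrested (20 hr) MO7e; cpd in DMSO, 1 hr; h-SCF 50 ng/ml, 5 min; lyse. ELISA: anti-pTyr (PY-20) capture, anti-c-kit 1° Ab, HRP anti-rabbit 2° Ab, A450.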

T1 sequence (P10721 26-976): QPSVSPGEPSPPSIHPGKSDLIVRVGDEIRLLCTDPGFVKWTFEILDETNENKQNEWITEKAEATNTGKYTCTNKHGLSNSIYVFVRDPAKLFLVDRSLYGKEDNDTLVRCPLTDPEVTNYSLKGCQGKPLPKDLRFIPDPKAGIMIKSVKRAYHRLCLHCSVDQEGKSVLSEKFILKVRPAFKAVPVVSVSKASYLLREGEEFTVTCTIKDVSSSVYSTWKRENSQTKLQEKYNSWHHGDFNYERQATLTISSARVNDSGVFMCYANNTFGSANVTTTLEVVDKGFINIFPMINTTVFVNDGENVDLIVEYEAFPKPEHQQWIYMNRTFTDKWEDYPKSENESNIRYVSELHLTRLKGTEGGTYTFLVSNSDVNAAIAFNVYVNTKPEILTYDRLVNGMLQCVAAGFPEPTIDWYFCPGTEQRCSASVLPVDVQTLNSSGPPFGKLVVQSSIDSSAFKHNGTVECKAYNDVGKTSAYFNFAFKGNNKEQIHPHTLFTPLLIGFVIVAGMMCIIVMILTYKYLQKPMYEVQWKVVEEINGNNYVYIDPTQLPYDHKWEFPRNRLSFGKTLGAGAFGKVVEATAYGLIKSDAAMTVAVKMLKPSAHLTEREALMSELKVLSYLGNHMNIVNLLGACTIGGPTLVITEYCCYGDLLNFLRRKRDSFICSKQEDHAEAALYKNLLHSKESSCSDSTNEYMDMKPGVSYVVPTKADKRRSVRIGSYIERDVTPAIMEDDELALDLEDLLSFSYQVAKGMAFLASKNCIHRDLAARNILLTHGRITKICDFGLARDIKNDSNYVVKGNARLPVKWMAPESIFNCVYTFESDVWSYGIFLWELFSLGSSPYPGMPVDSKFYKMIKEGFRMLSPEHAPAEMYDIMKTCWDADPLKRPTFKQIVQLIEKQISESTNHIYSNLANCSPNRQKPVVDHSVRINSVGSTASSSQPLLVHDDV

Row | Compound | pIC50
1 | COc1cc2nccc(Oc3ccc(NC(=O)Oc4ccccc4)c(C)c3C)c2cc1OC [Example 217, Phenyl N-{4-[(6,7-dimethoxy-4-quinolyl)oxy]-2,3-dimethylphenyl}carbamate] | 7.41
2 | C=CCCCOC(=O)Nc1ccc(Oc2ccnc3cc(OC)c(OC)cc23)cc1 [Example 266, 4-Pentenyl N-{4-[(6,7-dimethoxy-4-quinolyl)oxy]phenyl}carbamate] | 7.47
3 | COc1cc2ncnc(Oc3ccc(NC(=O)OCc4ccccc4)c(Cl)c3)c2cc1OC [Example 225, Benzyl N-{2-chloro-4-[(6,7-dimethoxy-4-quinazolinyl)oxy]phenyl}carbamate] | 6.34

Same assay, conditions: MO7e cells, h-SCF stimulation; read-out: c-kit IC50

Row | Compound | pIC50
4 | COc1cc2nccc(Oc3ccc(NC(=S)NC(=O)c4ccc(F)cc4)c(F)c3)c2cc1OC [Example 966, N-{4-[(6,7-Dimethoxy-4-quinolyl)oxy]-2-fluorophenyl}-N′-(4-fluorobenzoyl)thiourea] | 6.63
5 | COc1cc2nccc(Oc3ccc(NC(=S)NC(=O)C4CCCC4)cc3)c2cc1OC [Example 1061, N-Cyclopentylcarbonyl-N′-{4-[(6,7-dimethoxy-4-quinolyl)oxy]phenyl}thiourea] | 6.87
6 | COc1cc2nccc(Oc3ccc(SCCCCOc4ccccc4F)cc3)c2cc1OC [Example 843, 4-(4-{[4-(2-Fluorophenoxy)butyl]sulfanyl}phenoxy)-6,7-dimethoxyquinoline] | 6.58
7 | COc1cc2nccc(Oc3ccc(N(C)CCOc4ccc(F)cc4)cc3)c2cc1OC [Example 867, N-{4-[(6,7-Dimethoxy-4-quinolyl)oxy]phenyl}-N-[2-(4-fluorophenoxy)ethyl]-N-methylamine] | 6.72
8 | COc1cc2nccc(Oc3ccc(NC(=S)NC(=O)c4ccccc4)c(C)c3)c2cc1OC [Example 1099, N-Benzoyl-N′-{4-[(6,7-dimethoxy-4-quinolyl)oxy]-2-methylphenyl}thiourea] | 6.26
9 | COc1cc2nccc(Oc3ccc(NC(=S)NC(=O)c4cccc(Br)c4)cc3F)c2cc1OC [Example 946, N-(3-Bromobenzoyl)-N′-{4-[(6,7-dimethoxy-4-quinolyl)oxy]-3-fluorophenyl}thiourea] | 6.85
10 | COc1cc2nccc(Oc3ccc(NC(=S)NC(=O)c4ccc(F)cc4F)cc3)c2cc1OC [Example 1006, N-(2,4-Difluorobenzoyl)-N′-{4-[(6,7-dimethoxy-4-quinolyl)oxy]phenyl}thiourea] | 6.74
11 | COc1cc2nccc(Oc3ccc(NC(=S)NC(=O)c4cccc(Cl)c4)cc3F)c2cc1OC [Example 943, N-(3-Chlorobenzoyl)-N′-{4-[(6,7-dimethoxy-4-quinolyl)oxy]-3-fluorophenyl}thiourea] | 6.87
12 | COc1cc2nccc(Oc3ccc(NC(=S)NC(=O)c4ccsc4)cc3)c2cc1OC [Example 1034, N-{4-[(6,7-Dimethoxy-4-quinolyl)oxy]phenyl}-N′-(3-thienylcarbonyl)thiourea] | 6.42
13 | COc1cc2nccc(Oc3ccc(NC(=S)NC(=O)c4ccc(Cl)c(Cl)c4)cc3)c2cc1OC [Example 1120] | 6.11
14 | COc1cc2nccc(Oc3ccc(NC(=S)NC(=O)c4cccc(Br)c4)cc3)c2cc1OC [Example 935, N-(3-Bromobenzoyl)-N′-{4-[(6,7-dimethoxy-4-quinolyl)oxy]phenyl}thiourea] | 6.78
15 | COc1cc2ncnc(Oc3ccc(NC(=S)NC(=O)c4ccc(F)cc4)cc3)c2cc1OC [Example 986, N-{4-[(6,7-Dimethoxy-4-quinazolinyl)oxy]phenyl}-N′-(4-fluorobenzoyl)thiourea] | 6.58
16 | COc1cc2nccc(Oc3ccc(NC(=S)NC(=O)c4cccc(F)c4)c(F)c3)c2cc1OC [Example 937, N-{4-[(6,7-Dimethoxy-4-quinolyl)oxy]-2-fluorophenyl}-N′-(3-fluorobenzoyl)thiourea] | 6.09
17 | COc1cc2nccc(Oc3ccc(NCCOc4cccc(C)c4)cc3)c2cc1OC [Example 871, N-{4-[(6,7-Dimethoxy-4-quinolyl)oxy]phenyl}-N-[2-(3-methylphenoxy)ethyl]amine] | 7.37
18 | COc1cc2nccc(Oc3ccc(NC(=S)NC(=O)c4cccc(C)c4)cc3C)c2cc1OC [Example 1110, N-{4-[(6,7-Dimethoxy-4-quinolyl)oxy]-3-methylphenyl}-N′-(3-methylbenzoyl)thiourea] | 6.95
19 | COc1cc2nccc(Oc3ccc(NCCOc4ccccc4C)cc3)c2cc1OC [Example 852, N-{4-[(6,7-Dimethoxy-4-quinolyl)oxy]phenyl}-N-[2-(2-methylphenoxy)ethyl]amine] | 6.75
20 | COc1cc2nccc(Oc3ccc(NC(=S)NC(=O)c4ccccc4C(F)(F)F)cc3Cl)c2cc1OC [Example 924, N-{3-Chloro-4-[(6,7-dimethoxy-4-quinolyl)oxy]phenyl}-N′-[2-(trifluoromethyl)benzoyl]thiourea] | 6.36
21 | COc1cc2nccc(Oc3ccc(SCCOc4ccc(C)cc4C)cc3)c2cc1OC [Example 826, 4-(4-{[2-(2,4-Dimethylphenoxy)ethyl]sulfanyl}phenoxy)-6,7-dimethoxyquinoline] | 6.77
22 | COc1cc2nccc(Oc3ccc(NC(=S)NC(=O)c4cccc(C)c4)c(F)c3)c2cc1OC [Example 936, N-{4-[(6,7-Dimethoxy-4-quinolyl)oxy]-2-fluorophenyl}-N′-(3-methylbenzoyl)thiourea] | 6.37
23 | COc1ccc(C(=O)NC(=S)Nc2ccc(Oc3ccnc4cc(OC)c(OC)cc34)c(F)c2)cc1 [Example 976, N-{4-[(6,7-Dimethoxy-4-quinolyl)oxy]-3-fluorophenyl}-N′-(4-methoxybenzoyl)thiourea] | 6.10
24 | COc1cc2nccc(Oc3ccc(NC(=S)NC(=O)c4ccccc4)cc3F)c2cc1OC [Example 911, N-Benzoyl-N′-{4-[(6,7-dimethoxy-4-quinolyl)oxy]-3-fluorophenyl}thiourea] | 6.30

Same assay, conditions: Mo7e, figure in parentheses in −( ); at 1000 nM

Row | Compound | inhibition at 1 µM
25 | COc1cc2nccc(Oc3ccc(NC(=S)NC(=O)c4cccc(C)c4)c([N+](=O)[O-])c3)c2cc1OC [Example 953, N-{4-[(6,7-Dimethoxy-4-quinolyl)oxy]-2-nitrophenyl}-N′-(3-methylbenzoyl)thiourea] | 32%
26 | COc1cc2nccc(Oc3ccc(NC(=S)NC(=O)c4cccc(C)c4)c(C)c3)c2cc1OC [Example 1098, N-{4-[(6,7-Dimethoxy-4-quinolyl)oxy]-2-methylphenyl}-N′-(3-methylbenzoyl)thiourea] | 41%
27 | COc1cc2nccc(Oc3ccc(NC(=S)NC(=O)c4ccc(I)cc4)cc3Cl)c2cc1OC [Example 981, N-{3-Chloro-4-[(6,7-dimethoxy-4-quinolyl)oxy]phenyl}-N′-(4-iodobenzoyl)thiourea] | 47%
28 | COc1cc2nccc(Oc3ccc(NC(=S)NC(=O)c4ccc([N+](=O)[O-])cc4)c(F)c3)c2cc1OC [Example 968, N-{4-[(6,7-Dimethoxy-4-quinolyl)oxy]-2-fluorophenyl}-N′-(4-nitrobenzoyl)thiourea] | 27%
29 | COc1cc2nccc(Oc3ccc(NC(=S)NC(=O)c4ccccc4F)c(C)c3)c2cc1OC [Example 1094, N-{4-[(6,7-Dimethoxy-4-quinolyl)oxy]-2-methylphenyl}-N′-(2-fluorobenzoyl)thiourea] | 18%
30 | COc1cc2nccc(Oc3ccc(NC(=S)NC(=O)c4cccc(F)c4)c(C)c3)c2cc1OC [Example 1091, N-{4-[(6,7-Dimethoxy-4-quinolyl)oxy]-2-methylphenyl}-N′-(3-fluorobenzoyl)thiourea] | 39%
